Holding throughout (format): functional
Assay [1] relates to Brassica rapa subsp. oleifera. Briefly: Post-emergence herbicidal activity against Brassica rapa subsp. oleifera seedlings assessed as inhibition of plant fresh weight growth at 1500 g/ha applied through spraying under greenhouse conditions. As to conditions: read-out: GI.
In assay [2] the test system is Brassica rapa subsp. oleifera. Briefly: Herbicidal activity against Brassica rapa subsp. oleifera assessed as inhibition of root growth at 1000 ug/ml after 65 hr by rape cup test. As to conditions: read-out: GI.
For assay [3], the system named is Echinochloa crus-galli. Briefly: Herbicidal activity against Echinochloa crus-galli (barnyard grass) plants assessed as inhibition of seedling growth at 100 ug/ml after 65 hr by barnyard cup test. As to conditions: read-out: GI.
Assay [4] concerns Echinochloa crus-galli. Briefly: Pre-emergence herbicidal activity against Echinochloa crus-galli (barnyard grass) assessed as inhibition of plant fresh weight growth at 1500 g/ha applied to soil through spraying under greenhouse conditions. As to conditions: read-out: GI.
Assay [5] concerns Amaranthus retroflexus. Briefly: Post-emergence herbicidal activity against Amaranthus retroflexus seedlings assessed as inhibition of plant fresh weight growth at 1500 g/ha applied through spraying under greenhouse conditions. As to conditions: read-out: GI.
Assay [6] relates to Brassica rapa subsp. oleifera. The assay is described as follows: Pre-emergence herbicidal activity against Brassica rapa subsp. oleifera assessed as inhibition of plant fresh weight growth at 1500 g/ha applied to soil through spraying under greenhouse conditions. As to conditions: read-out: GI.
For assay [7], the system named is Echinochloa crus-galli. Briefly: Herbicidal activity against Echinochloa crus-galli (barnyard grass) plants assessed as germination rate at 1000 ug/ml measured on first day post dose (reference value: 49.1 +/- 1.6%).
Assay [8] has as its system Echinochloa crus-galli. The assay is described as follows: Herbicidal activity against Echinochloa crus-galli (barnyard grass) plants assessed as inhibition of seedling growth at 1000 ug/ml after 65 hr by barnyard cup test. As to conditions: read-out: GI.
For assay [9], the system named is Brassica rapa subsp. oleifera. The assay is described as follows: Herbicidal activity against Brassica rapa subsp. oleifera assessed as inhibition of root growth at 100 ug/ml after 65 hr by rape cup test. As to conditions: read-out: GI.
Assay [10] has as its system Amaranthus retroflexus. The assay is described as follows: Pre-emergence herbicidal activity against Amaranthus retroflexusassessed as inhibition of plant fresh weight growth at 1500 g/ha applied to soil through spraying under greenhouse conditions. As to conditions: read-out: GI.
The subject of assay [11] is Paraixeris denticulata. The assay is described as follows: Herbicidal activity against Paraixeris denticulata assessed as germination rate at 1000 ug/ml measured on fourth day post dose (reference value: 100%).
Assay [12] has as its system Paraixeris denticulata. Briefly: Herbicidal activity against Paraixeris denticulata assessed as germination rate at 1000 ug/ml measured on third day post dose (reference value: 97.4 +/- 0.6%).
Assay [13] relates to Echinochloa crus-galli. Briefly: Herbicidal activity against Echinochloa crus-galli (barnyard grass) plants assessed as germination rate at 1000 ug/ml measured on second day post dose (reference value: 100%).
Assay [14] concerns Digitaria sanguinalis. Briefly: Post-emergence herbicidal activity against Digitaria sanguinalis (hairy crabgrass) seedlings assessed as inhibition of plant fresh weight growth at 1500 g/ha applied through spraying under greenhouse conditions. As to conditions: read-out: GI.
Assay [15] concerns Echinochloa crus-galli. Briefly: Post-emergence herbicidal activity against Echinochloa crus-galli (barnyard grass) seedlings assessed as inhibition of plant fresh weight growth at 1500 g/ha applied through spraying under greenhouse conditions. As to conditions: read-out: GI.
Assay [16] deals with Paraixeris denticulata. Briefly: Herbicidal activity against Paraixeris denticulata assessed as germination rate at 1000 ug/ml measured on first day post dose (reference value: 30.8 +/- 1.2%).
Assay [17] concerns Paraixeris denticulata. Briefly: Herbicidal activity against Paraixeris denticulata assessed as germination rate at 1000 ug/ml measured on second day post dose (reference value: 76.7 +/- 0.3%).
Assay [18] relates to Digitaria sanguinalis. Briefly: Pre-emergence herbicidal activity against Digitaria sanguinalis (hairy crabgrass) assessed as inhibition of plant fresh weight growth at 1500 g/ha applied to soil through spraying under greenhouse conditions. As to conditions: read-out: GI.
Assay [19] concerns Digitaria sanguinalis. Briefly: Herbicidal activity against Digitaria sanguinalis (hairy crabgrass) assessed as germination rate at 1000 ug/ml measured on third day post dose (reference value: 100%).
The test system of assay [20] is Digitaria sanguinalis. Briefly: Herbicidal activity against Digitaria sanguinalis (hairy crabgrass) assessed as germination rate at 1000 ug/ml measured on second day post dose (reference value: 100%).
Assay [21] deals with Digitaria sanguinalis. Briefly: Herbicidal activity against Digitaria sanguinalis (hairy crabgrass) assessed as germination rate at 1000 ug/ml measured on first day post dose (reference value: 0%).
The test system of assay [22] is Brassica rapa subsp. oleifera. Briefly: Herbicidal activity against Brassica rapa subsp. oleifera assessed as inhibition of root growth at 10 ug/ml after 65 hr by rape cup test. As to conditions: read-out: GI.
Assay [23] concerns Echinochloa crus-galli. The assay is described as follows: Pre-emergence herbicidal activity against Echinochloa crus-galli (barnyard grass) assessed as inhibition of plant fresh weight growth at 150 g/ha applied to soil through spraying under greenhouse conditions. As to conditions: read-out: GI.
The test system of assay [24] is Brassica rapa subsp. oleifera. Briefly: Post-emergence herbicidal activity against Brassica rapa subsp. oleifera seedlings assessed as inhibition of plant fresh weight growth at 150 g/ha applied through spraying under greenhouse conditions. As to conditions: read-out: GI.
The test system of assay [25] is Amaranthus retroflexus. The assay is described as follows: Pre-emergence herbicidal activity against Amaranthus retroflexus assessed as inhibition of plant fresh weight growth at 150 g/ha applied to soil through spraying under greenhouse conditions. As to conditions: read-out: GI.
In assay [26] the test system is Digitaria sanguinalis. The assay is described as follows: Post-emergence herbicidal activity against Digitaria sanguinalis (hairy crabgrass) seedlings assessed as inhibition of plant fresh weight growth at 150 g/ha applied through spraying under greenhouse conditions. As to conditions: read-out: GI.
The subject of assay [27] is Brassica rapa subsp. oleifera. The assay is described as follows: Pre-emergence herbicidal activity against Brassica rapa subsp. oleifera assessed as inhibition of plant fresh weight growth at 150 g/ha applied to soil through spraying under greenhouse conditions. As to conditions: read-out: GI.
Assay [28] deals with Amaranthus retroflexus. The assay is described as follows: Post-emergence herbicidal activity against Amaranthus retroflexus seedlings assessed as inhibition of plant fresh weight growth at 150 g/ha applied through spraying under greenhouse conditions. As to conditions: read-out: GI.
The subject of assay [29] is Echinochloa crus-galli. The assay is described as follows: Post-emergence herbicidal activity against Echinochloa crus-galli (barnyard grass) seedlings assessed as inhibition of plant fresh weight growth at 150 g/ha applied through spraying under greenhouse conditions. As to conditions: read-out: GI.
The test system of assay [30] is Digitaria sanguinalis. The assay is described as follows: Pre-emergence herbicidal activity against Digitaria sanguinalis (hairy crabgrass) assessed as inhibition of plant fresh weight growth at 150 g/ha applied to soil through spraying under greenhouse conditions. As to conditions: read-out: GI.

Molecules are shown by their SMILES.

Turning to `COc1cc(OC)c2c(c1)O/C(=C\c1ccccc1F)C2=O`, the inhibition of growth at 1500 g/ha was 0% in assay [1]; 15% in assay [4]; 40.1% in assay [5]; 0% in [6]; 10% in [10]; 0% in assay [14]. Moreover, the inhibition of growth at 1500 g/ha in [15] is 6.5%; in assay [18] it was 0%. Moreover, the inhibition of growth at 1000 µg/mL came out at 86.8% in assay [2] and 45% in assay [8]. In addition, the inhibition of growth at 100 µg/mL in assay [3] is 15%; in [9], 74.7%. In addition, the Activity in assay [7] is given as 11.4%; in [11], 100%; in [12] it was 76.7%; in [13] it was 100%; in assay [16], 17.8%; in assay [17], 58.9%.

With `CCOc1cc(OCC)c2c(c1)O/C(=C\c1ccc(OCc3ccccc3)c(OC)c1)C2=O`, the inhibition of growth at 1500 g/ha in assay [1] was 0%; in assay [4] it was 0%; in assay [5], 0%; in assay [6], 0%; in assay [10] it was 5%; in [14], 5%. Further, the inhibition of growth at 1500 g/ha in [15] amounted to 7.9%; in assay [18], 10%. For the same compound, the values for the inhibition of growth at 1000 µg/mL in assay [2] and in [8] were 72.6% and 26.7%, respectively. For the same compound, the inhibition of growth at 100 µg/mL in assay [3] came to 15%; in assay [9], 79.2%.

As to `COc1cc(/C=C2\Oc3cc(OC)c(C)c(OC)c3C2=O)ccc1OCc1ccccc1`, the Activity is listed as 100% in [19]; 16.3% in [7]; 38.9% in assay [20]; 0% in assay [21]; 100% in assay [11]; 91.7% in [12]. Further, the Activity in [13] came out at 100%; in [16], 12.1%; in [17], 65.5%. Further, the inhibition of growth at 1000 µg/mL is 99.5% in assay [2] and 45.1% in assay [8]. For the same compound, the values for the inhibition of growth at 100 µg/mL in assay [3] and in assay [9] were 19% and 71.7%, respectively. Besides, the inhibition of growth at 10 µg/mL in [22] worked out at 42.6%.

Regarding `COc1cc(OC)c2c(c1)O/C(=C\c1ccccc1)C2=O`, the inhibition of growth at 1500 g/ha in assay [1] came to 15%; in assay [4], 10%; in [5] it was 42.2%; in assay [6], 0%; in [10], 0%; in [14], 0%. For the same compound, the inhibition of growth at 1500 g/ha in assay [15] and in assay [18] was 0% in each case. Further, the Activity in [19] was determined as 100%; in assay [7], 18.8%; in assay [20] it was 22.5%; in [21], 0%; in assay [11], 100%; in [12] it was 95%. Moreover, the values for the Activity in assay [13], in [16] and in assay [17] were 100%, 2.5% and 75.7%, respectively. The values for the inhibition of growth at 1000 µg/mL in [2] and in assay [8] were 91.4% and 20%, respectively. Besides, the inhibition of growth at 100 µg/mL in [3] turned out to be 0%; in assay [9], 88.5%. Besides, the inhibition of growth at 10 µg/mL in [22] worked out at 81.3%.

Consider `COc1cc(OC)c2c(c1)O/C(=C\c1ccc(OC)c(OC)c1)C2=O` [4,6,3',4'-TETRAMETHOXYAURONE], for which the Activity in assay [19] came to 100%; in assay [7], 13%; in assay [20] it was 41.4%; in assay [21] it was 0%; in assay [11], 100%; in assay [12], 100%. Also, the Activity is listed as 100% in assay [13], 20% in [16] and 69.6% in assay [17]. Besides, the inhibition of growth at 1000 µg/mL came out at 77.9% in assay [2] and 61.3% in assay [8]. Moreover, the values for the inhibition of growth at 100 µg/mL in assay [3] and in [9] were 0.9% and 5.3%, respectively.

For `CS(=O)(=O)c1ccc(C(=O)C2C(=O)CCCC2=O)c([N+](=O)[O-])c1` [MESOTRIONE], the inhibition of growth at 150 g/ha was found to be 92.5% in [23]; 100% in [24]; 97.9% in assay [25]; 100% in assay [26]; 97.8% in assay [27]; 100% in assay [28]. The inhibition of growth at 150 g/ha in assay [29] amounted to 86.7%; in assay [30], 100%. The inhibition of growth at 1000 µg/mL in assay [2] is 93.4%; in assay [8], 96.1%. Also, the inhibition of growth at 100 µg/mL came out at 90.5% in [3] and 89.7% in assay [9]. For the same compound, the inhibition of growth at 10 µg/mL in assay [22] was found to be 80.3%.

In the case of `CCc1cccc(C)c1N(C(=O)CCl)C(C)COC` (stereo not given) [METOLACHOR], the inhibition of growth at 1500 g/ha in assay [1] is 100%; in [4], 100%; in assay [5], 66.4%; in assay [6], 88.3%; in assay [10] it was 100%; in assay [14] it was 46.3%. Besides, the inhibition of growth at 1500 g/ha worked out at 54% in assay [15] and 100% in assay [18].

The values are drawn from ChEMBL document CHEMBL3046252, “Synthesis and herbicidal potential of substituted aurones” (2012).
